Source: the NIST ThermoML archive (doi:10.1021/je1012586)

What was measured:
[1] = refractive index (Na D-line) (dimensionless); wn = mass fraction of the nth substance listed; details: 101 kPa, Liquid
[2] = wn = mass fraction of the nth substance listed; details: for surface tension liquid-gas: Pendant drop shape; for viscosity / mass density: 101 kPa, Liquid; for viscosity: Capillary tube (Ostwald / Ubbelohde) method

C1CNCCN1 [piperazine] + O
Details	mass density, [2] [kg/m3]	refractive index, [1]	surface tension liquid-gas, [2] [mN/m]	viscosity, [2] [mPa·s]
298.15 K, w1 = 0.0174	997.75	1.33796	70.97	0.87
298.15 K, w1 = 0.0345	998.52	1.34183	69.95	0.94
298.15 K, w1 = 0.0688	1000.18	1.34759	69.83	1.08
298.15 K, w1 = 0.1035	1002.23	1.35307	69.41	1.29
303.15 K, w1 = 0.0174	996.37	1.33706	70.09	0.78
303.15 K, w1 = 0.0345	997.08	1.34024	69.18	0.85
303.15 K, w1 = 0.0688	998.69	1.34608	68.99	0.96
303.15 K, w1 = 0.1035	1000.64	1.35203	68.37	1.18
308.15 K, w1 = 0.0174	994.74	–	–	0.71
308.15 K, w1 = 0.0345	995.43	–	–	0.75
308.15 K, w1 = 0.0688	996.97	–	–	0.86
308.15 K, w1 = 0.1035	998.84	–	–	1.04
313.15 K, w1 = 0.0174	992.91	1.33604	69.11	0.68
313.15 K, w1 = 0.0345	993.59	1.33892	68.21	0.69
313.15 K, w1 = 0.0688	995.07	1.34482	68.11	0.78
313.15 K, w1 = 0.1035	996.86	1.35071	67.44	0.9
318.15 K, w1 = 0.0174	990.9	–	–	0.59
318.15 K, w1 = 0.0345	991.56	–	–	0.63
318.15 K, w1 = 0.0688	992.99	–	–	0.71
318.15 K, w1 = 0.1035	994.73	–	–	0.84
323.15 K, w1 = 0.0174	988.72	1.33476	67.93	0.54
323.15 K, w1 = 0.0345	989.35	1.33759	67.29	0.57
323.15 K, w1 = 0.0688	990.74	1.34336	67.06	0.65
323.15 K, w1 = 0.1035	992.39	1.34957	66.45	0.78
328.15 K, w1 = 0.0174	986.37	–	–	0.5
328.15 K, w1 = 0.0345	986.98	–	–	0.52
328.15 K, w1 = 0.0688	988.33	–	–	0.58
328.15 K, w1 = 0.1035	989.92	–	–	0.68
333.15 K, w1 = 0.0174	983.83	1.33348	66.99	0.46
333.15 K, w1 = 0.0345	984.46	1.33577	66.48	0.48
333.15 K, w1 = 0.0688	985.77	1.34221	66.14	0.54
333.15 K, w1 = 0.1035	987.3	1.34829	65.31	0.62
